Patent US20140323504A1, “Pyrazolo[4,3-c]Pyridine Derivatives As Kinase Inhibitors” (Cellzome Limited, priority 2011, published 2014)

Key:
[1] = biological target: T1, Tyk2 (Homo sapiens, UniProt P29597); test: Kinobeads assay with antibody detection, TYK2; format: binding; settings: mixed Molt4/Ramos lysate, read-out: Tyk2 inhibition value (IC50)
T1 construct: endogenous in cells; host or cells: mixed Molt4/Ramos cell lysate (1:2)
Procedure: (§1) The compounds of the present invention as described in the previous examples were tested in a Kinobeads™ assay as described for ZAP-70 (WO-A 2007/137867). Briefly, test compounds (at various concentrations) and the affinity matrix with the immobilized aminopyrido-pyrimidine ligand 24 were added to cell lysate aliquots and allowed to bind to the proteins in the lysate sample. After the incubation time the beads with captured proteins were separated from the lysate. Bound proteins were then eluted and the presence of JAK1; JAK2, JAK3 and TYK2 was detected and quantified using specific antibodies in a dot blot procedure and the Odyssey infrared detection system. Dose response curves for individual kinases were generated and IC50 values calculated. Kinobeads™ assays for ZAP-70 (WO-A 2007/137867) and for kinase selectivity profiling (WO-A 2006/134056) have been previously described.
(§2) 5×DP buffer: 250 mM Tris-HCl pH 7.4, 25% Glycerol, 7.5 mM MgCl2, 750 mM NaCl, 5 mM Na3VO4; filter the 5×DP buffer through a 0.22 μm filter and store in aliquot at −80° C. The 5×DP buffer is diluted with H2O to 1×DP buffer containing 1 mM DTT and 25 mM NaF.
(§3) Stock solutions of test compounds were prepared in DMSO. In a 96 well plate 30 μL solution of diluted test compounds at 5 mM in DMSO were prepared. Starting with this solution a 1:3 dilution series (9 steps) was prepared. For control experiments (no test compound) a buffer containing 2% DMSO was used.
(§4) Molt4 cells (ATCC catalogue number CRL-1582) and Ramos cells (ATCC catalogue number CRL-1596) were grown in 1 L Spinner flasks (Integra Biosciences, #182101) in suspension in RPMI 1640 medium (Invitrogen, #21875-034) supplemented with 10% Fetal Bovine Serum (Invitrogen) at a density between 0.15×10^6 and 1.2×10^6 cells/mL. Cells were harvested by centrifugation, washed once with 1×PBS buffer (Invitrogen, #14190-094) and cell pellets were frozen in liquid nitrogen and subsequently stored at −80° C. Cells were homogenized in a Potter S homogenizer in lysis buffer: 50 mM Tris-HCl, 0.8% NP40, 5% glycerol, 150 mM NaCl, 1.5 mM MgCl2, 25 mM NaF, 1 mM sodium vanadate, 1 mM DTT, pH 7.5. One complete EDTA-free tablet (protease inhibitor cocktail, Roche Diagnostics, 1873580) per 25 mL buffer was added. The material was dounced 10 times using a mechanized POTTER S, transferred to 50 mL falcon tubes, incubated for 30 minutes on ice and spun down for 10 minutes at 20,000 g at 4° C. (10,000 rpm in Sorvall SLA600, precooled). The supernatant was transferred to an ultracentrifuge (UZ)-polycarbonate tube (Beckmann, 355654) and spun for 1 hour at 100.000 g at 4° C. (33.500 rpm in Ti50.2, precooled). The supernatant was transferred again to a fresh 50 mL falcon tube, the protein concentration was determined by a Bradford assay (BioRad) and samples containing 50 mg of protein per aliquot were prepared. The samples were immediately used for experiments or frozen in liquid nitrogen and stored frozen at −80° C.
(§5) Cell lysate (approximately 50 mg protein per plate) was thawed in a water bath at room temperature and then stored on ice. To the thawed cell lysate 1×DP 0.8% NP40 buffer containing protease inhibitors (1 tablet for 25 mL buffer; EDTA-free protease inhibitor cocktail; Roche. Diagnostics 1873580) was added in order to reach a final protein concentration of 10 mg/mL total protein. The diluted cell lysate was stored on ice. Mixed Molt4Ramos lysate was prepared by combining one volume of Molt4 lysate and two volumes of Ramos lysate (ratio 1:2).
(§6) Plates were sealed and incubated for 3 hours in a cold room on a plate shaker (Heidolph tiramax 1000) at 750 rpm. Afterwards the plate was washed 3 times with 230 μL washing buffer (1×DP 0.4% NP40). The filter plate was placed on top of a collection plate (Greiner bio-one, PP-microplate 96 well V-shape, 65120) and the beads were then eluted with 20 μL of sample buffer (100 mM Tris, pH 7.4, 4% SDS, 0.00025% bromophenol blue, 20% glycerol, 50 mM DTT). […]

[2] = biological target: T2, JAK3 (Homo sapiens, UniProt P52333); test: Kinobeads assay with antibody detection, JAK3; format: binding; parameters: endogenous in cells; host or cells: mixed Molt4/Ramos cell lysate (1:2); settings: mixed Molt4/Ramos lysate, read-out: JAK3 inhibition value (IC50)
T2 sequence (P52333 1-1124): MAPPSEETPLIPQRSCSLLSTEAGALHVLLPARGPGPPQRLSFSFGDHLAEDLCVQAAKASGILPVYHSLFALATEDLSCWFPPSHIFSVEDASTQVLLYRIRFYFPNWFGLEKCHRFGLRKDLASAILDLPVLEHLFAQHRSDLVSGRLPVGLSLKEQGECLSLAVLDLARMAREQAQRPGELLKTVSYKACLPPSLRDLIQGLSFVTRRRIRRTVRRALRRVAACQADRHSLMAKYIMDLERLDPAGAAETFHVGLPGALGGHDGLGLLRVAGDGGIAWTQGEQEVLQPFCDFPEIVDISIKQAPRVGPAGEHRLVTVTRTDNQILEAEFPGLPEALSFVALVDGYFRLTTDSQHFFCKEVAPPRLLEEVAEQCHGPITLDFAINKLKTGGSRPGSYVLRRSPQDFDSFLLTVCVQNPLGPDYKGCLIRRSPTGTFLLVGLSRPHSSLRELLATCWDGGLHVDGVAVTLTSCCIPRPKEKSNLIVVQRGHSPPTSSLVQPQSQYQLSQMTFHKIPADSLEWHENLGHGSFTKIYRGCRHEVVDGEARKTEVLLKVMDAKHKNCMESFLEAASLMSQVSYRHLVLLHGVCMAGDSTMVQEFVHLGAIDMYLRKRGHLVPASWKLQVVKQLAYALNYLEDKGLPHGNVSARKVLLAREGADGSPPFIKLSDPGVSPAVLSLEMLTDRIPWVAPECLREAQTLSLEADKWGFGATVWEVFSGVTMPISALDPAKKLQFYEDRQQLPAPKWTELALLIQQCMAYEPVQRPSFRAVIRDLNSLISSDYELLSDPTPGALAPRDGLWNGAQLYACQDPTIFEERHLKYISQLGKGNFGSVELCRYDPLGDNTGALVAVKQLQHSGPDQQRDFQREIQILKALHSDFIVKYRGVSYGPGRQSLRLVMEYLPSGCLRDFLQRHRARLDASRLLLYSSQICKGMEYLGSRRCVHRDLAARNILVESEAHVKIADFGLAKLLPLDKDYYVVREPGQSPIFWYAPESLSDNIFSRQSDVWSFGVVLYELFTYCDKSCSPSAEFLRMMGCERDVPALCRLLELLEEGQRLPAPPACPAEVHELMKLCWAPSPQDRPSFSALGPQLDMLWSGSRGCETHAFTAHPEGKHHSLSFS
Procedure: as §1, §2, §3, §4, §5, §6

T1 sequence (P29597 whole entry): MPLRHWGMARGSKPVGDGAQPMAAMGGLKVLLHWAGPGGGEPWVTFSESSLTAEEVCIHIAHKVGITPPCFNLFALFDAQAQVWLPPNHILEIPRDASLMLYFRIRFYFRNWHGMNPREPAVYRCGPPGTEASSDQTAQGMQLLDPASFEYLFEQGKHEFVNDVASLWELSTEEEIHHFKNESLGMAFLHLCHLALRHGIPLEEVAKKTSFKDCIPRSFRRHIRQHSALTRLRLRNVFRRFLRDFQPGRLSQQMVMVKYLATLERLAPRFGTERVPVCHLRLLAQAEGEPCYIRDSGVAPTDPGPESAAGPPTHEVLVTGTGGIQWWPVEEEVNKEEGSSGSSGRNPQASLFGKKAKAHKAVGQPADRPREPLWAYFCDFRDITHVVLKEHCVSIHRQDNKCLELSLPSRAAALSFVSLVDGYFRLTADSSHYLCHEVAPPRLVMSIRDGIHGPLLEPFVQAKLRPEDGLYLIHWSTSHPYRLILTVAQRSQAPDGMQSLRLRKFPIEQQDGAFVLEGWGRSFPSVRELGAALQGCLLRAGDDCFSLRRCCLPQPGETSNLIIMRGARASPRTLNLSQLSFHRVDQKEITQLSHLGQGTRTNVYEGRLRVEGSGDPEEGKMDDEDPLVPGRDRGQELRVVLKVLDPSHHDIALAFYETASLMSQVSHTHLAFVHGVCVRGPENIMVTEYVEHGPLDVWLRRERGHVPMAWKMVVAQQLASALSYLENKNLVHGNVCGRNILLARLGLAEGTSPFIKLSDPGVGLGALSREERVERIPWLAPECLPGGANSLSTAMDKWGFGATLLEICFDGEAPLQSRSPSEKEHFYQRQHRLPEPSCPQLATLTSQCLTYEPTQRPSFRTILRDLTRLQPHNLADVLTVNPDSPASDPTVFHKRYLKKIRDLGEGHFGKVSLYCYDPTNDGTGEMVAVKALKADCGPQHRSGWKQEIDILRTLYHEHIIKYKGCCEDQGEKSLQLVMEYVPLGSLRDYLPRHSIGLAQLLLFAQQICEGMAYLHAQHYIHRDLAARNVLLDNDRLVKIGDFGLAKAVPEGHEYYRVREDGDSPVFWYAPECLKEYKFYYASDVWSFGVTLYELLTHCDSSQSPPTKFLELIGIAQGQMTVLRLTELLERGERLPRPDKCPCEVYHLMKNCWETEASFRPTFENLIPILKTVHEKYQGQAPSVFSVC

Row | IC50 [1] [nM] | IC50 [2] [nM] | Structure (SMILES)
1 | > 10000 | 57 | C=C(C)C(=O)Nc1cccc(Cn2ncc3cnc(Nc4cnn(C)c4)nc32)c1 [Example 5, N-(3-((6-((1-Methyl-1H-pyrazol-4-yl)amino)-1H-pyrazolo[3,4-d]pyrimidin-1-yl)methyl)phenyl)methacrylamide]
2 | > 10000 | 16 | C=CC(=O)Nc1cc(Cn2ncc3cnc(Nc4cnn(C)c4)nc32)ccc1F [Example 2, […]]
3 | > 10000 | 5 | C=CC(=O)Nc1cccc(Cn2ncc3cnc(Nc4cnn(C)c4)nc32)c1 [Example 1, N-(3-((6-((1-Methyl-1H-pyrazol-4-yl)amino)-1H-pyrazolo[3,4-d]pyrimidin-1-yl)methyl)phenyl)acrylamide]
4 | 901 | 12 | C=CS(=O)(=O)Nc1cccc(Cn2ccc3cnc(Nc4cnn(C)c4)nc32)c1 [Example 7, N-(3-((2-((1-Methyl-1H-pyrazol-4-yl)amino)-7H-pyrrolo[2,3-d]pyrimidin-7-yl)methyl)phenyl)ethenesulfonamide]
5 | 6130 | 10 | C=CS(=O)(=O)Nc1cccc(Cn2ncc3cnc(Nc4cnn(C)c4)nc32)c1 [Example 4, N-(3-((6-((1-Methyl-1H-pyrazol-4-yl)amino)-1H-pyrazolo[3,4-d]pyrimidin-1-yl)methyl)phenyl)ethenesulfonamide]
6 | > 10000 | 206 | CC(=O)Nc1cccc(Cn2ncc3cnc(Nc4cnn(C)c4)nc32)c1 [compound 2, N-(3-((6-((1-methyl-1H-pyrazol-4-yl)amino)-1H-pyrazolo[3,4-d]pyrimidin-1-yl)methyl)phenyl)acetamide, reference compound]
7 | 6960 | 10 | C#CC(=O)Nc1cccc(Cn2ncc3cnc(Nc4cnn(C)c4)nc32)c1 [Example 3, N-(3-((6-((1-Methyl-1H-pyrazol-4-yl)amino)-1H-pyrazolo[3,4-d]pyrimidin-1-yl)methyl)phenyl)propiolamide]
